{"source": "patent US11827655B2", "about": "“Triplet-triplet annihilation upconversion system, and compositions and methods thereof for drug delivery” (University of Massachusetts, priority 2017, dated 2023)", "test": "Entrapment efficiency by absorbance", "type": "physicochemical", "conditions": "sensitizer and emitter loading in TTA-MSNs", "description": "Next, TTA-MSNs were prepared dependence on the following steps. MSNs (50.0 mg) were dispersed 25 mL round flask in of BDP-F (2 mg), PEA (3 mg) and methyl oleate (150 mg) in THF (10 mL). The mixture solution was stirred until organic solvent evaporation (about 12 h) at room temperature in the dark condition. And then 10 mL PBS buffer was added. The mixture was ultrasonic shocked for 20 min. to make the nanoparticles dispersed in the PBS buffer. Then the BDP-F (sensitizer) and PEA (emitter)-loaded silica nanoparticles were low speed centrifuged (1000 rpm/min) for 5 min. The supernatant was collected and then extracted using dichloromethane (DCM). The DCM solvent containing BDP-F and PEA was used to measure sensitizer and emitter loading by collecting UV-vis absorption spectra using a molar absorption coefficient of 177500 M^−1 cm^−1 with)max=615 nm for BDP-F, 18000 M^−1cm^−1 with λmax=420 nm for PEA. Sensitizer and emitter loading were calculated using the following equation: Entrapment efficiency(%)=absorption of the loaded dye/absorption initial mass of the dye×100%.\nThe precipitate sample was extracted with 10 mL DCM. And then absorbance of Cou-C was measured to calculate the entrapment efficiency. Entrapment efficiency(%)=1−absorption of the unloaded prodrug/initial mass of the prodrug×100%.", "data": [{"smiles": "C(#Cc1c2ccccc2cc2ccccc12)c1ccccc1", "note": "[PEA, 9-phenylacetylene anthracene]", "values": [{"measurement": "entrapment efficiency", "result": 72, "unit": "%"}]}]}
